Assay results as given in US8735538B1, “Use of methanobactin” (priority 2006, dated 2014).
Like-named read-outs stand apart in the source and are kept apart here.

How the values were obtained:
[1] = Initial screening by UV-visible absorption spectroscopy: Pb(II); assay type: binding; settings: in the absence of Cu(II) or Cu(I)
Experimental: (§1) Metal titration experiments were determined by addition of 100 μM, 1 mM, or 10 mM solutions of AgNO3, HAuCl4, CdCl2, CoCl2, CrO3, CuSO4, FeCl3, HgCl2, MgCl2, MnCl2, NiCl2, Pb(NO3)2, UO2(NO3)2, or ZnSO4 to 50 μM methanobactin dissolved in H2O, pH 6.8 as previously described for Cu(II) or Cu(I) titrations (Choi et al., 2006) unless otherwise stated. Glassware was soaked in 0.1 N HNO3 for 12 hours then rinsed with milliQ H2O. For the metal replacement experiments, 50 μM aqueous mb solutions were preloaded with equimolar of AgNO3, HAuCl4, CaCl2, CdCl2, CoCl2, CrO3, CuSO4, FeCl3, HgCl2, MgCl2, MnCl2, NiCl2, Pb(NO3)2, UO2(NO3)2, or ZnSO4, incubated for 10 minutes followed by the addition of equimolar CuSO4 then monitored via UV-visible absorption spectroscopy every 30 seconds for 0.5-120 minutes. Between scans the samples were stored in the dark to avoid photodegradation (Choi et al., 2005).
(§2) UV-visible absorption, florescence spectra, circular dichroism (CD), and metal determinations via inductively coupled plasma atomic emission-mass spectroscopy (ICP-MS) were determined as previously described (Choi et al., 2003; Choi et al., 2006). In contrast to a previous report (Choi et al., 2006), the base line was used as a reference point of 0 instead of isosbestic point e for the comparison of Δεs.

[2] = Initial screening by UV-visible absorption spectroscopy: Mn(II); assay type: binding; settings: in the absence of Cu(II) or Cu(I)
Experimental: as §1, §2

[3] = Initial screening by UV-visible absorption spectroscopy: Cd(II); assay type: binding; settings: in the absence of Cu(II) or Cu(I)
Experimental: as §1, §2

[4] = ITC, metal binding to mb: Co(II); settings: Co(II) column, one-site fit, 25° C.
Experimental: (§3) FIG. 14. Binding isotherm of 3.2 mM HgCl2 (A), HAuCl4 (B), AgNO3 (C) NiCl2 (D), ZnCl2 (E) or FeCl3 (F) into 400 μM mb (cell) aqueous solution at 25° C. Binding isotherm of 1.6 mM HAuCl4 (B). The curve fittings for two-site binding algorithm were used.
(§4) FIG. 15. Binding isotherm of 3.2 mM CdCl2 (A), CoCl2(B), FeCl3 (C), or MnCl2(D) into […] mb aqueous solution at 25° C. Curve fittings for one-site binding algorithm (B, D) or two-site binding algorithm (A, C) were used.
(§5) ITC was performed with following modifications from the previously described procedure (Choi et al., 2006). First, concentrations of the titrant and cell solutions were raised to 3.2 mM and 0.4 mM, respectively. Second, the interval between titrant injections were decreased to 600 s and the stirring rate decreased to 380 rpm.

[5] = ITC, metal binding to mb: Ni(II); settings: Ni(II) column
Experimental: as §3, §4, §5

[6] = ITC, metal binding to mb: Pb(II); settings: Pb(II) column, one-site binding model
Experimental: as §3, §4, §5

[7] = Cu(II) column, cited from earlier work
[8] = Initial screening by UV-visible absorption spectroscopy: Ba(II); assay type: binding; settings: in the absence of Cu(II) or Cu(I)
[9] = Initial screening by UV-visible absorption spectroscopy: U(VI); assay type: binding; settings: in the absence of Cu(II) or Cu(I)
Experimental: as §1, §2

[10] = XPS, oxidation state of metal bound to mb: Au(III)
Excerpt: FIG. 11. (A) Gold X-ray photoelectric spectra of mb at gold to mb molar ratios between 0.05 and 10 Au per mb. (B) Corrected signal from Au(0) (◯) and Au(III) (●) at different gold:mb molar ratios.
(§6) XPS was preformed on a model Phoibos-150 hemispherical analyzer (SPECS Scientific Instruments, Sarasota, Fla.) or on a model 5600ci spectrophotometer (Perkin-Elmer Inc., Eden Prairie, Minn.) as previously described (Choi et al., 2006).

[11] = ITC, metal binding to mb: Hg(II); settings: Hg(II) column
Experimental: as §3, §4, §5

[12] = Initial screening by UV-visible absorption spectroscopy: Co(II); assay type: binding; settings: in the absence of Cu(II) or Cu(I)
Experimental: as §1, §2

[13] = Initial screening by UV-visible absorption spectroscopy: Ag(I); assay type: binding; settings: in the absence of Cu(II) or Cu(I)
Experimental: as §1, §2

[14] = Initial screening by UV-visible absorption spectroscopy: Sr(II); assay type: binding; settings: in the absence of Cu(II) or Cu(I)
[15] = ITC, metal binding to mb: Ag(I); settings: Ag(I) column
Experimental: as §3, §4, §5

[16] = Initial screening by UV-visible absorption spectroscopy: Mg(II); assay type: binding; settings: in the absence of Cu(II) or Cu(I)
Experimental: as §1, §2

[17] = Initial screening by UV-visible absorption spectroscopy: Au(III); assay type: binding; settings: in the absence of Cu(II) or Cu(I)
Experimental: as §1, §2

[18] = XPS, oxidation state of metal bound to mb: Ni(II)
Excerpt: as §6

[19] = ITC, metal binding to mb: Fe(III); settings: Fe(III) column
Experimental: as §3, §4, §5

[20] = Initial screening by UV-visible absorption spectroscopy: La(III); assay type: binding; settings: in the absence of Cu(II) or Cu(I)
[21] = ITC, metal binding to mb: Zn(II); settings: Zn(II) column
Experimental: as §3, §4, §5

[22] = Initial screening by UV-visible absorption spectroscopy: Ni(II); assay type: binding; settings: in the absence of Cu(II) or Cu(I)
Experimental: as §1, §2

[23] = Initial screening by UV-visible absorption spectroscopy: Fe(III); assay type: binding; settings: in the absence of Cu(II) or Cu(I)
Experimental: as §1, §2

[24] = Initial screening by UV-visible absorption spectroscopy: Hg(II); assay type: binding; settings: in the absence of Cu(II) or Cu(I)
Experimental: as §1, §2

[25] = Initial screening by UV-visible absorption spectroscopy: Zn(II); assay type: binding; settings: in the absence of Cu(II) or Cu(I)
Experimental: as §1, §2

[26] = ITC, metal binding to mb: Au(III); settings: column headed Au(II)
Experimental: as §3, §4, §5

[27] = ITC, metal binding to mb: Cd(II); settings: Cd(II) column
Experimental: as §3, §4, §5

[28] = ITC, metal binding to mb: Mn(II); settings: Mn(II) column, one-site fit, 25° C.
Experimental: as §3, §4, §5

[29] = first site, two-site fit, 25° C.

Substance: methanobactin [mb]
- binding of Pb(II) by mb [1]: will bind
- binding of Mn(II) by mb [2]: will bind
- binding of Cd(II) by mb [3]: will bind
- K1 [4]: 1.1 ± 0.2 × 10^6 M^−1
- K1 [5, 29]: 4.9 ± 0.9 × 10^5 M^−1
- K1 ([5]; second site): 1.17 ± 0.5 × 10^7 M^−1
- K1 [6]: 6.84 ± 0.4 × 10^5 M^−1
- K1 ([7]; first site): 3.3e+34 ± 3e+11 M⁻¹
- K1 ([7]; second site): 2.6 ± 0.5 × 10^8 M^−1
- binding of Ba(II) by mb [8]: not
- binding of U(VI) by mb [9]: will bind
- Au to mb ratio above which Au(III) is detected in reaction mixtures [10]: > 2 Au(III) per mb
- oxidation state of Au(III) after binding by mb ([10]; no external reductant): reduced to Au(0)
- K1 [11, 29]: 9.9 ± 2.9 × 10^6 M^−1
- K1 ([11]; second site): 89.9 ± 0.01 × 10^4 M^−1
- binding of Co(II) by mb [12]: will bind
- binding of Ag(I) by mb [13]: will bind
- binding of Sr(II) by mb [14]: not
- K1 [15, 29]: 2.6 ± 0.4 × 10^7 M^−1
- K1 ([15]; second site): 4.7 ± 0.45 × 10^4 M^−1
- binding of Mg(II) by mb [16]: not
- binding of Au(III) by mb [17]: will bind
- oxidation state of Ni(II) following binding to mb [18]: did not change
- K1 [19, 29]: 9.7 ± 0.6 × 10^5 M^−1
- K1 ([19]; second site): 1.7 ± 0.7 x10^5 M^−1
- binding of La(III) by mb [20]: not
- K1 [21, 29]: 4.5 ± 1.4 × 10^6 M^−1
- K1 ([21]; second site): 1.8 ± 0.1 × 10^4 M^−1
- binding of Ni(II) by mb [22]: will bind
- binding of Fe(III) by mb [23]: will bind
- binding of Hg(II) by mb [24]: will bind
- binding of Zn(II) by mb [25]: will bind
- K1 [26, 29]: 1.0 ± 0.5 × 10^5 M^−1
- K1 ([26]; second site): 1.8 ± 0.2 × 10^5 M^−1
- K1 [27, 29]: 1.3 ± 0.8 × 10^6 M^−1
- K1 ([27]; second site): 1.1 ± 0.6 × 10^7 M^−1
- K1 [28]: 7.7 ± 1.8 × 10^5 M^−1
